How the values were obtained:
[1] = tested on: MV4-11 (human biphenotypic B myelomonocytic leukaemia); assay: Antiproliferative MTT assay, 72 h exposure; assay type: cell-based
Procedure: (§1) The biological studies were performed in vitro using human cancer cell lines: MV4-11 (human biphenotypic B myelomonocytic leukaemia), A-549 (non-small cell lung cancer), MCF-7 (breast cancer), LoVo (colon cancer), LoVo/DX (colon cancer drug resistant), HepG2 (liver cancer) and BALB/3T3 (normal mice fibroblasts). These lines were obtained from American Type Culture Collection (Rockville, Maryland, U.S.A.). The cell line is being maintained in the Institute of Immunology and Experimental Therapy, Wroclaw, Poland. All cell lines were grown at 37°C with 5% CO2 humidified atmosphere and were cultured in cultured medium according to the method described before.
(§2) Prior to usage, the compounds were dissolved in DMSO or in mixture of 99.8% ethanol and DMSO (1:1) to the concentration of 25 or 50 mM, and subsequently diluted in culture medium to reach the required concentrations (ranging from 5 to 625 μM).
(§3) Twenty-four hours prior to the addition of tested compounds, the cells were plated in 96-well plates (Sarstedt, Germany) at a density of 1 × 10^4 cells per well in 100 μL of culture medium. The assay was performed after 72 h of exposure to varying concentrations of the tested agents. The in vitro cytotoxic effect of tested agents was examined using the MTT (for MV4-11 cells) or SRB assay which were described previously. Each compound in each concentration was tested in triplicate in a single experiment, which was repeated 3–5 times.
(§4) The results of antiproliferative activity were given as IC50 values. Using this parameter we calculated also the resistance indexes (RI) dividing the IC50 values of selected compounds estimated for drug resistant cell LOVO/DX line by respective values designated for drug sensitive LoVo line. According to Harker et al. three categories of the cells could be distinguished: (a) the cells are drug-sensitive—if the ratio approaches 0–2; (b) the cells are moderately drug-resistant—if the ratio ranges from 2 to 10; (c) the cells are markedly drug-resistant—if the ratio is higher than 10.

LoVo (colon cancer) = assay: Antiproliferative SRB assay, 72 h exposure; assay type: cell-based, human; details: SRB, 72 h, mean ± SD of 3–5 experiments, n.a. = no activity in concentration of 5, 25, 125, 625 μM
Procedure: as §1, §2, §3, §4

[2] = tested on: LoVo/DX (colon cancer drug resistant); assay: Antiproliferative SRB assay, 72 h exposure; assay type: cell-based, human; details: Homo sapiens, LoVo/DX, mean ± SD of 3–5 experiments, n.a. = no activity in concentration of 5, 25, 125, 625 μM
Procedure: as §1, §2, §3, §4

MCF-7 (breast cancer) = assay: Antiproliferative SRB assay, 72 h exposure; assay type: cell-based, human; details: n.a. = no activity in concentration of 5, 25, 125, 625 μM
Procedure: as §1, §2, §3, §4

[3] = tested on: drug resistant LOVO/DX line vs drug sensitive LoVo line; assay: Resistance index (RI): IC50 LOVO/DX divided by IC50 LoVo; assay type: cell-based, human; details: RI = IC50 resistant line / IC50 non-resistant line; 0<RI<2 able to overcome drug resistance; 2<RI<10 moderate ability; RI>10 no influence
Source text: as §4

[4] = tested on: A-549 (non-small cell lung cancer); assay: Antiproliferative SRB assay, 72 h exposure; assay type: cell-based, human; details: n.a. = no activity in concentration of 5, 25, 125, 625 μM
Procedure: as §1, §2, §3, §4

HepG2 (liver cancer) = assay: Antiproliferative SRB assay, 72 h exposure; assay type: cell-based, human; details: Homo sapiens, HepG2, mean ± SD of 3–5 experiments, n.a. = no activity in concentration of 5, 25, 125, 625 μM
Procedure: as §1, §2, §3, §4

[5] = tested on: BALB/3T3 (normal mice fibroblasts); assay: Antiproliferative SRB assay, 72 h exposure; assay type: cell-based; details: n.a. = no activity in concentration of 5, 25, 125, 625 μM
Procedure: as §1, §2, §3, §4

[6] = Homo sapiens, MV4-11, mean ± SD of 3–5 independent experiments
[7] = Homo sapiens, MCF7, mean ± SD of 3–5 experiments
[8] = Homo sapiens, A549, mean ± SD of 3–5 experiments
[9] = Mus musculus, BALB/3T3, mean ± SD of 3–5 experiments

| SMILES | IC50 [1, 6] [µM] | IC50 (LoVo (colon cancer); Homo sapiens, LoVo) [µM] | IC50 [2] [µM] | IC50 (MCF-7 (breast cancer); [7]) [µM] | further results |
| --- | --- | --- | --- | --- | --- |
| C=CC(C)(CCCC(C)CCCC(C)CCCC(C)C)CC(=O)O[C@H](COC(=O)CCCCCCCCCCCCCCC)COP(=O)([O-])OCC[N+](C)(C)C (some centres unmarked) [Compound 7d] | 259 ± 32.5 | – | – | – | – |
| C=CC(C)(CCC=C(C)C)CC(=O)OC[C@@H](O)COP(=O)([O-])OCC[N+](C)(C)C (some centres unmarked) [Compound 8a] | 269 ± 18 | 245 ± 68.5 | 469 ± 3.2 | 372 ± 28.1 | Resistance index (RI) [3]: 1.61 |
| C=CC(C)(CC/C=C(\C)CCC=C(C)C)CC(=O)OC[C@H](COP(=O)([O-])OCC[N+](C)(C)C)OC(=O)CCCCCCCCCCCCCCC (some centres unmarked) [Compound 9b] | 299 ± 39.3 | 269 ± 29.9 | 537 ± 61.2 | 489 ± 57.7 | – |
| C=CC(C)(CCCC(C)CCCC(C)CCCC(C)C)CC(=O)OC[C@H](COP(=O)([O-])OCC[N+](C)(C)C)OC(=O)CCCCCCCCCCCCCCC (some centres unmarked) [Compound 9d] | 259 ± 37 | – | – | – | – |
| CCCCCCCCCCCCCCCC(=O)OC[C@H](COP(=O)([O-])OCC[N+](C)(C)C)OC(=O)CCCCCCCCCCCCCCC [DPPC, reference compound] | – | – | – | – | IC50 ([1]; mean ± SD of 3–5 independent experiments): 179 ± 30.2 µM; IC50 ([4]; mean ± SD of 3–5 experiments): 230 ± 31.3 µM; IC50 (LoVo (colon cancer)): 274 ± 17.1 µM; IC50 (MCF-7 (breast cancer); mean ± SD of 3–5 experiments): 398 ± 194 µM; IC50 ([5]; mean ± SD of 3–5 experiments): 48.8 ± 2.1 µM |
| COc1cccc2c1C(=O)c1c(O)c3c(c(O)c1C2=O)C[C@@](O)(C(=O)CO)C[C@@H]3O[C@H]1C[C@H](N)[C@H](O)[C@H](C)O1 [Doxorubicin, doxorubicin, reference compound] | – | – | – | – | Resistance index (RI) [3]: 55.81 |

The remaining compounds from weak to strong by IC50 [1, 6], led by results:

| IC50 [1, 6] [µM] | IC50 (LoVo (colon cancer); Homo sapiens, LoVo) [µM] | IC50 [2] [µM] | IC50 (MCF-7 (breast cancer); [7]) [µM] | SMILES | further results |
| --- | --- | --- | --- | --- | --- |
| 203 ± 15 | 284 ± 9.7 | 382 ± 32.4 | 470 ± 52.9 | CCC/C=C1/C(C)(C)CCCC1(C)CC(=O)OC[C@@H](O)COP(=O)([O-])OCC[N+](C)(C)C (stereo partly drawn) [Compound 8c, (2’R)-1’-{2-[(3R,2"E)-2"-butylidene-1",3",3"-trimethyl]cyclohexyl}acetyl-2’-hydroxy-sn-glycero-3’-phospocholine + (2’R)-1’-{2-[(3S,2"E)-2"-butylidene-1",3",3"-trimethyl]cyclohexyl}acetyl-2’-hydroxy-sn-glycero-3’-phospocholine] | Resistance index (RI) [3]: 1.23 |
| 161 ± 78.9 | 42.1 ± 4.6 | 86.3 ± 21.3 | 123 ± 63.4 | CCCCCCCCCCCCCCCC(=O)O [Palmitic acid, reference compound] | IC50 [4, 8]: 56.4 ± 1.6 µM; IC50 (HepG2 (liver cancer)): 275 ± 85.2 µM; IC50 [5, 9]: 60.4 ± 4 µM |
| 50 ± 9 | 61.5 ± 4.84 | 75.5 ± 8.1 | 102 ± 11.2 | CCC/C=C1/C(C)(C)CCCC1(C)CC(=O)OC[C@H](COP(=O)([O-])OCC[N+](C)(C)C)OC(=O)CCCCCCCCCCCCCCC (stereo partly drawn) [Compound 9c, (2’R)-1’-{2-[(3R,2"E)-2"-butylidene-1",3",3"-trimethyl]cyclohexyl}acetyl-2’-palmitoyl-sn-glycero-3’-phospocholine + (2’R)-1’-{2-[(3S,2"E)-2"-butylidene-1",3",3"-trimethyl]cyclohexyl}acetyl-2’-palmitoyl-sn-glycero-3’-phospocholine] | IC50 [4, 8]: 68.3 ± 1.5 µM; IC50 (HepG2 (liver cancer)): 303 ± 77.6 µM; IC50 [5, 9]: 292 ± 41.5 µM |
| 47.4 ± 6.35 | – | – | – | C=CC(C)(CCCC(C)CCCC(C)CCCC(C)C)CC(=O)OC[C@@H](O)COP(=O)([O-])OCC[N+](C)(C)C (some centres unmarked) [Compound 8d] | – |
| 31.8 ± 1.62 | 32.8 ± 5.1 | 52.7 ± 3.3 | 40 ± 1.9 | C=CC(C)(CCC=C(C)C)CC(=O)OC[C@H](COP(=O)([O-])OCC[N+](C)(C)C)OC(=O)CCCCCCCCCCCCCCC (some centres unmarked) [Compound 9a] | IC50 [4, 8]: 38.3 ± 6.7 µM; IC50 (HepG2 (liver cancer)): 59.2 ± 4.6 µM; IC50 [5, 9]: 57.6 ± 1 µM |
